The record followed here is patent US20190031618A1, “BENZIMIDAZOLE DERIVATIVES USEFUL AS CB-1 INVERSE AGONISTS” (Janssen Pharmaceutica NV, priority 2015, published 2019).

Assay [1] deals with Human CB1R (Cannabinoid receptor 1) (Homo sapiens, UniProt P21554). In words: CB-1 in vitro cAMP (HTRF) assay. The class given is cell-based. To be noted: HEK cells, cAMP HTRF, 250 nM forskolin; mean where tested more than once; read-out: CB1 HEK_cAMP EC50. The method in brief: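 Intracellular cAMP from HTRF ratio (d2-cAMP vs Eu-cryptate anti-cAMP), converted to nM via per-plate standards, in stable human CB1R HEK-293 cells.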

The target of assay [2] is Human CB2R (Cannabinoid receptor 2) (Homo sapiens, UniProt P34972). Kind of assay: CB-2 in vitro cAMP (HTRF) assay. In kind it is cell-based. To be noted: HEK cells, cAMP HTRF, 250 nM forskolin; mean where tested more than once; read-out: CB2 HEK_cAMP EC50. The method in brief: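 HEK-293 cells stably expressing receptor, plated overnight at 4E5 cells/mL, tested with 1/3 serial dilutions of compound in HBSS/HEPES/BSA buffer with 0.5 mM IBMX and forskolin (diluted to 1.5 μM in buffer). cAMP measured by competitive HTRF immunoassay (d2-cAMP, cryptate anti-cAMP), signal inversely proportional to cAMP.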

A value given as a limit tells only on which side of the number the result lay.

Chain of Human CB1R (Cannabinoid receptor 1) (P21554 whole entry): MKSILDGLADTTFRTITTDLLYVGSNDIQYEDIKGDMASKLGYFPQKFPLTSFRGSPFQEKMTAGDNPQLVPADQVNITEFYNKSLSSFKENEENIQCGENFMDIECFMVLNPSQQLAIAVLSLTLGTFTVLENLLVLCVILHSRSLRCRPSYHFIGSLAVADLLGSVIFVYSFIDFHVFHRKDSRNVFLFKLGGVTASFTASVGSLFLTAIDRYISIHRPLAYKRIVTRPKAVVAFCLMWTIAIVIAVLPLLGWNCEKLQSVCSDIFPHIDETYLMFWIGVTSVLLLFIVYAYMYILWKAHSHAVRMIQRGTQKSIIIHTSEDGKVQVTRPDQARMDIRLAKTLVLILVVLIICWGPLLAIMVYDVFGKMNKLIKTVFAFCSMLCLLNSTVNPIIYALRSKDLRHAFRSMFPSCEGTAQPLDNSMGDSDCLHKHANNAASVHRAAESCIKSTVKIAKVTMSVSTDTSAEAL
Chain of Human CB2R (Cannabinoid receptor 2) (P34972 whole entry): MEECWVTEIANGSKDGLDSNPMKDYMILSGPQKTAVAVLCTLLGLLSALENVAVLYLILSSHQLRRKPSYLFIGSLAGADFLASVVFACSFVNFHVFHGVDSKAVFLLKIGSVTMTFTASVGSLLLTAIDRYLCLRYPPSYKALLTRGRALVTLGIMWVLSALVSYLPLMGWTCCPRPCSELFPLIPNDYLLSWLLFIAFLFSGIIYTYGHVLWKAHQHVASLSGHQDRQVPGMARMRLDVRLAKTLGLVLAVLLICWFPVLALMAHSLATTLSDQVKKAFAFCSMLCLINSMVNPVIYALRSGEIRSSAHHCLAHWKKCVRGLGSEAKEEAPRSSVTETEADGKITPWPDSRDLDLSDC

On to `O=C(c1nc[nH]n1)N1CCC(n2c(C3CC3)nc3ccc(C(c4ccc(Cl)cc4)c4ccc(Cl)cc4)cc32)CC1` [Example 201], for which the EC50 in assay [1] is 0.0638 µM; in assay [2] it was 0.99 µM.
In the case of `O=S(=O)(N1CCC(n2c(C3CC3)nc3c(O)cc(C(c4ccc(Cl)cc4)c4ccc(Cl)cc4)cc32)CC1)C(F)(F)F` [Example 202], the EC50 is 0.0312 µM in assay [1] and above 10 µM in assay [2].
Take `COC(=O)CCNC(=O)c1cccc(S(=O)(=O)N2CCC(n3c(C4CC4)nc4ccc(C(c5ccc(Cl)cc5)c5ccc(Cl)cc5)cc43)CC2)c1` [Example 203]: the EC50 is 0.0324 µM in assay [1] and above 10 µM in assay [2].
Turning to `O=C(NCCO)c1ccc(S(=O)(=O)N2CCC(n3c(C4CC4)nc4ccc(C(c5ccc(Cl)cc5)c5ccc(Cl)cc5)cc43)CC2)cn1` [Example 204], the EC50 is 0.0944 µM in assay [1] and above 10 µM in assay [2].
For the molecule `O=C(NCCO)c1cccc(S(=O)(=O)N2CCC(n3c(C4CC4)nc4ccc(C(c5ccc(Cl)cc5)c5ccc(Cl)cc5)cc43)CC2)c1` [Example 205], the EC50 came to 0.0367 µM in assay [1] and 5.73 µM in assay [2].
`Cc1cc(S(=O)(=O)N2CCC(n3c(C4CC4)nc4ccc(C(c5ccc(Cl)cc5)c5ccc(Cl)cc5)cc43)CC2)ccc1C(N)=O` [Example 206]: the EC50 was 0.101 µM in assay [1] and above 10 µM in assay [2].
With `Cc1cc(S(=O)(=O)N2CCC(n3c(C4CC4)nc4ccc(C(c5ccc(Cl)cc5)c5ccc(Cl)cc5)cc43)CC2)ccc1C(=O)O` [Example 207], the EC50 in assay [1] was found to be 0.0064 µM; in assay [2] it was 4.66 µM.
In the case of `COc1ccc(S(=O)(=O)N2CCC(n3c(C4CC4)nc4ccc(C(c5ccc(Cl)cc5)c5ccc(Cl)cc5)cc43)CC2)cc1C(=O)O` [Example 211], the results for the EC50 in assay [1] and in assay [2] were 0.589 µM and 10.2 µM, respectively.
For `NC(=O)c1ccc(S(=O)(=O)N2CCC(n3c(C4CC4)nc4ccc(C(CO)(c5ccc(Cl)cc5)c5ccc(Cl)cc5)cc43)CC2)cc1Cl` [Example 212], the EC50 in assay [1] was 3.74 µM; in assay [2] it was above 10 µM.
`O=C(O)c1ccc(S(=O)(=O)N2CCC(n3c(C4CC4)nc4ccc(C(CO)(c5ccc(Cl)cc5)c5ccc(Cl)cc5)cc43)CC2)cc1Cl` [Example 213]: the EC50 is 8.31 µM in assay [1] and above 10 µM in assay [2].
For the molecule `O=C(O)c1cc(S(=O)(=O)N2CCC(n3c(C4CC4)nc4ccc(C(c5ccc(Cl)cc5)c5ccc(Cl)cc5)cc43)CC2)ccc1Cl` [Example 214], the EC50 was determined as 0.0225 µM in assay [1] and 5.05 µM in assay [2].
In the case of `Cc1cc(C(N)=O)sc1S(=O)(=O)N1CCC(n2c(C3CC3)nc3ccc(C(c4ccc(Cl)cc4)c4ccc(Cl)cc4)cc32)CC1` [Example 215], the EC50 is 0.002 µM in assay [1] and above 10 µM in assay [2].
Regarding `NC(=O)c1csc(S(=O)(=O)N2CCC(n3c(C4CC4)nc4ccc(C(c5ccc(Cl)cc5)c5ccc(Cl)cc5)cc43)CC2)c1` [Example 216], the EC50 was 0.0062 µM in assay [1] and above 10 µM in assay [2].
With `NC(=O)c1cc(S(=O)(=O)N2CCC(n3c(C4CC4)nc4ccc(C(c5ccc(Cl)cc5)c5ccc(Cl)cc5)cc43)CC2)ccc1F` [Example 217], the EC50 was 0.0092 µM in assay [1] and above 10 µM in assay [2].
As for `Cc1cc(C(=O)O)sc1S(=O)(=O)N1CCC(n2c(C3CC3)nc3ccc(C(c4ccc(Cl)cc4)c4ccc(Cl)cc4)cc32)CC1` [Example 218], the EC50 in assay [1] was found to be 0.0072 µM; in assay [2] it was 1.44 µM.
For the molecule `O=S(=O)(c1ccc(O)c(F)c1)N1CCC(n2c(C3CC3)nc3ccc(C(c4ccc(Cl)cc4)c4ccc(Cl)cc4)cc32)CC1` [Example 220], the EC50 stood at 1.37 µM in assay [1] and 5.84 µM in assay [2].
As to `O=S(=O)(c1cc(Cl)c(O)c(Cl)c1)N1CCC(n2c(C3CC3)nc3ccc(C(c4ccc(Cl)cc4)c4ccc(Cl)cc4)cc32)CC1` [Example 222], the concentration for a half-maximal effect (EC50) in assay [1] was found to be 0.011 µM; in assay [2], 4.96 µM.
Turning to `NC(=O)c1ccc(C(=O)N2CCC(n3c(C4CC4)nc4ccc(C(c5ccc(Cl)cc5)c5ccc(Cl)cc5)cc43)CC2)cn1` [Example 223], the results for the EC50 in assay [1] and in assay [2] were 0.0248 µM and 3.34 µM, respectively.
`NC(=O)c1ccc(S(=O)(=O)N2CCC(n3c(C4CC4)nc4ccc(C(c5ccc(Cl)cc5)c5ccc(Cl)cc5)cc43)CC2)o1` [Example 224]: the values for the EC50 in assay [1] and in assay [2] were 0.006 µM and above 10 µM, respectively.
For the molecule `COc1ccc(S(=O)(=O)N2CCC(n3c(C4CC4)nc4ccc(C(c5ccc(Cl)cc5)c5ccc(Cl)cc5)cc43)CC2)cc1F` [Example 225], the EC50 in assay [1] was 0.0415 µM; in assay [2], above 10 µM.
`O=C(O)c1cc(S(=O)(=O)N2CCC(n3c(C4CC4)nc4ccc(C(c5ccc(Cl)cc5)c5ccc(Cl)cc5)cc43)CC2)ccc1F` [Example 226]: the EC50 in assay [1] came to 0.0167 µM; in assay [2], 7.82 µM.
On to `NC(=O)c1ccc(S(=O)(=O)N2CCC(n3c(C4CC4)nc4ccc(C(CO)(c5ccc(Cl)cc5)c5ccc(Cl)cc5)cc43)CC2)cc1` [Example 227], for which the EC50 in assay [1] is 2.04 µM; in assay [2] it was above 10 µM.
Turning to `O=C(O)c1ccc(S(=O)(=O)N2CCC(n3c(C4CC4)nc4ccc(C(CO)(c5ccc(Cl)cc5)c5ccc(Cl)cc5)cc43)CC2)cc1` [Example 228], the EC50 in assay [1] was 8.3 µM; in assay [2], above 10 µM.
The matching figures for `NS(=O)(=O)c1cccc(C(=O)N2CCC(n3c(C4CC4)nc4ccc(C(c5ccc(Cl)cc5)c5ccc(Cl)cc5)cc43)CC2)c1` [Example 229]: 0.0137 µM and 1.78 µM.
Consider `NS(=O)(=O)c1ccc(C(=O)N2CCC(n3c(C4CC4)nc4ccc(C(c5ccc(Cl)cc5)c5ccc(Cl)cc5)cc43)CC2)cc1` [Example 230], for which the figures for the concentration giving a half-maximal response (EC50) in assay [1] and in assay [2] were 0.0919 µM and 5.9 µM, respectively.
The matching figures for `O=C(O)c1ccc(C(=O)N2CCC(n3c(C4CC4)nc4ccc(C(c5ccc(Cl)cc5)c5ccc(Cl)cc5)cc43)CC2)cn1` [Example 231]: 0.709 µM and above 10 µM.
For the molecule `O=C(CCO)N1CCC(n2c(C3CC3)nc3ccc(C(c4ccc(Cl)cc4)c4ccc(Cl)cc4)cc32)CC1` [Example 234], the concentration for a half-maximal effect (EC50) was 0.0161 µM in assay [1] and 9.53 µM in assay [2].
`NC(=O)c1ccc(S(=O)(=O)N2CCC(n3c(C4CC4)nc4ccc(C(c5ccc(Cl)cc5)c5ccc(Cl)cc5)cc43)CC2)cn1` [Example 238]: the EC50 was 0.0019 µM in assay [1] and above 10 µM in assay [2].
Consider `O=C(CO)N1CCC(n2c(C3CC3)nc3ccc(C(c4ccc(Cl)cc4)c4ccc(Cl)cc4)cc32)CC1` [Example 240], for which the EC50 was determined as 0.0149 µM in assay [1] and 2.1 µM in assay [2].
For `O=C(O)c1ccccc1S(=O)(=O)N1CCC(n2c(C3CC3)nc3ccc(C(c4ccc(Cl)cc4)c4ccc(Cl)cc4)cc32)CC1` [Example 241] the same measures were 0.459 µM and 7.9 µM.
Turning to `NC(=O)c1ccccc1S(=O)(=O)N1CCC(n2c(C3CC3)nc3ccc(C(c4ccc(Cl)cc4)c4ccc(Cl)cc4)cc32)CC1` [Example 243], the EC50 was 0.0359 µM in assay [1] and 0.347 µM in assay [2].
In the case of `CCc1nc2ccc(C(CO)(c3ccc(Cl)cc3)c3ccc(Cl)cc3)cc2n1C1CCN(S(=O)(=O)C(F)(F)F)CC1` [Example 244], the EC50 in assay [1] is 0.534 µM; in assay [2] it was above 10 µM.
As to `O=S(=O)(N1CCC(n2c(C3CC3)nc3ccc(C(CO)(c4ccc(Cl)cc4)c4ccc(Cl)cc4)cc32)CC1)C(F)(F)F` [Example 245], the EC50 in assay [1] was 0.283 µM; in assay [2] it was above 10 µM.
